ChEMBL document CHEMBL3137667, “[Drug-induced liver injury; fourteenth updated edition of the bibliographic database of liver injuries and related drugs]” (Gastroenterol Clin Biol, 2004)

Key:
[1] = human
[2] = Highest frequency of acute liver toxicity observed during clinical trials, expressed as a percentage. [column '% AIGUE' in source]; settings: human
[3] = human; remark: listed apart in the source
[4] = human; remark: listed apart in the source
[5] = Times to onset, minimal and maximal, observed in the indexed observations. [column 'DELAI' in source]; settings: human
[6] = human; remark: listed apart in the source
[7] = human, serum
[8] = human, serum; remark: listed apart in the source
[9] = Highest frequency of moderate liver toxicity observed during clinical trials, expressed as a percentage. [column '% BIOL' in source]; settings: human
[10] = human; remark: listed apart in the source
[11] = human; remark: listed apart in the source
[12] = human, serum, 4383 h
[13] = human; remark: listed apart in the source
[14] = human; remark: listed apart in the source
[15] = Proposed mechanism(s) of liver damage. [column 'MEC' in source]; settings: human
[16] = human; remark: listed apart in the source
[17] = human; remark: listed apart in the source
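For Hepatotoxicity (association with vascular disease) in this document: count of indexed literature references reporting vascular liver injury in humans, e.g. peliosis hepatitis, hepatic veno-occlusive disease or Budd-Chiari syndrome.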
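For Hepatotoxicity (benign tumour) in this document: value is a count of indexed literature references citing a benign tumour confirmed by histopathology.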
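For Hepatotoxicity (choleostasis) in this document: human cholestatic liver injury, shown by histopathology or by peak ALT or AST elevation over alkaline phosphatase ratio below 2, value counts indexed literature reports.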
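For Hepatotoxicity (chronic liver disease) in this document: chronic liver injury confirmed by histopathology or persistently raised serum aminotransferase activity beyond 6 months, value given as the count of indexed literature references.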
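For Hepatotoxicity (cirrhosis) in this document: value is a count of indexed literature references reporting cirrhosis confirmed by histopathology.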
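For Hepatotoxicity (cytolytic) in this document: human cytolytic liver injury, shown by histopathology or by a ratio above 5 of peak ALT or AST elevation to alkaline phosphatase elevation, value counts indexed references.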
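For Hepatotoxicity (granulomatous hepatitis) in this document: value is a count of indexed literature references reporting granulomatous liver disease confirmed by histopathology.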
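For Hepatotoxicity (malignant tumour) in this document: malignant tumour confirmed by histopathology, value gives the count of indexed literature references reporting it.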
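For Hepatotoxicity (severe hepatitis) in this document: human clinical data: severe hepatitis, meaning potentially life-threatening liver failure or clinically observed cases, the value counts how many indexed literature references report it.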
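For Hepatotoxicity (steatosis) in this document: steatosis confirmed by histopathology, value is the count of indexed references.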

Cc1c(N(C)C)c(=O)n(-c2ccccc2)n1C [AMINOPYRINE]
Hepatotoxicity (choleostasis) [1]: 1
Hepatotoxicity (acute) ([2]; Liver): 0%
Hepatotoxicity (severe hepatitis) ([3]; Liver): 2
Hepatotoxicity (cytolytic) [4]: 3
Hepatotoxicity (time to onset) [5]: 3 months
Hepatotoxicity (granulomatous hepatitis) [6]: 0
Hepatotoxicity (moderate) [7]: 2
Hepatotoxicity (acute) [8]: 6
Hepatotoxicity (moderate) ([9]; Liver): 0%
Hepatotoxicity (cirrhosis) [10]: 0
Hepatotoxicity (animal toxicity known) [11]: yes
Hepatotoxicity (chronic liver disease) [12]: 0
Hepatotoxicity (steatosis) [13]: 1
Hepatotoxicity (benign tumour) [14]: 0
Hepatotoxicity (mechanism) [15]: Dose-dependant
Hepatotoxicity (malignant tumour) [16]: 0
Hepatotoxicity (association with vascular disease) [17]: 0

O=NN(CCCl)C(=O)NCCCl [CARMUSTINE]
Hepatotoxicity (choleostasis) [1]: 1
Hepatotoxicity (acute) [2]: 23%
Hepatotoxicity (severe hepatitis) [3]: 2
Hepatotoxicity (cytolytic) [4]: 3
Hepatotoxicity (time to onset) [5]: 1 week - 6 weeks
Hepatotoxicity (granulomatous hepatitis) [6]: 0
Hepatotoxicity (moderate) [7]: 8
Hepatotoxicity (acute) [8]: 6
Hepatotoxicity (moderate) [9]: 26%
Hepatotoxicity (cirrhosis) [10]: 0
Hepatotoxicity (animal toxicity known) [11]: yes
Hepatotoxicity (chronic liver disease) [12]: 0
Hepatotoxicity (steatosis) [13]: 0
Hepatotoxicity (benign tumour) [14]: 0
Hepatotoxicity (mechanism) [15]: Dose-dependant
Hepatotoxicity (malignant tumour) [16]: 0
Hepatotoxicity (association with vascular disease) [17]: 10

COc1cc2c(c(OC)c1OC)-c1ccc(OC)c(=O)cc1[C@@H](NC(C)=O)CC2 [COLCHICINE]
Hepatotoxicity (choleostasis) [1]: 0
Hepatotoxicity (acute) [2]: 0%
Hepatotoxicity (severe hepatitis) [3]: 0
Hepatotoxicity (cytolytic) [4]: 3
Hepatotoxicity (time to onset) [5]: 2 hours - 2 days
Hepatotoxicity (granulomatous hepatitis) [6]: 0
Hepatotoxicity (moderate) [7]: 2
Hepatotoxicity (acute) [8]: 7
Hepatotoxicity (moderate) [9]: 28.6%
Hepatotoxicity (cirrhosis) [10]: 0
Hepatotoxicity (animal toxicity known) [11]: yes
Hepatotoxicity (chronic liver disease) [12]: 0
Hepatotoxicity (steatosis) [13]: 0
Hepatotoxicity (benign tumour) [14]: 0
Hepatotoxicity (mechanism) [15]: Overdose
Hepatotoxicity (malignant tumour) [16]: 0
Hepatotoxicity (association with vascular disease) [17]: 0

C[C@@H](CN1CC(=O)NC(=O)C1)N1CC(=O)NC(=O)C1 [DEXRAZOXANE]
Hepatotoxicity (choleostasis) [1]: 0
Hepatotoxicity (acute) [2]: 0%
Hepatotoxicity (severe hepatitis) [3]: 0
Hepatotoxicity (cytolytic) [4]: 0
Hepatotoxicity (time to onset) [5]: 1 week
Hepatotoxicity (granulomatous hepatitis) [6]: 0
Hepatotoxicity (moderate) [7]: 3
Hepatotoxicity (acute) [8]: 0
Hepatotoxicity (moderate) [9]: 13%
Hepatotoxicity (cirrhosis) [10]: 0
Hepatotoxicity (animal toxicity known) [11]: yes
Hepatotoxicity (chronic liver disease) [12]: 0
Hepatotoxicity (steatosis) [13]: 0
Hepatotoxicity (benign tumour) [14]: 0
Hepatotoxicity (mechanism) [15]: Dose-dependant
Hepatotoxicity (malignant tumour) [16]: 0
Hepatotoxicity (association with vascular disease) [17]: 0

CCOc1ccc(NC(C)=O)cc1 [PHENACETIN]
Hepatotoxicity (choleostasis) [1]: 0
Hepatotoxicity (acute) [2]: 0%
Hepatotoxicity (severe hepatitis) [3]: 0
Hepatotoxicity (cytolytic) [4]: 0
Hepatotoxicity (time to onset) [5]: 2 days - 2 years
Hepatotoxicity (granulomatous hepatitis) [6]: 2
Hepatotoxicity (moderate) [7]: 2
Hepatotoxicity (acute) [8]: 4
Hepatotoxicity (moderate) [9]: 0%
Hepatotoxicity (cirrhosis) [10]: 0
Hepatotoxicity (animal toxicity known) [11]: yes
Hepatotoxicity (chronic liver disease) [12]: 0
Hepatotoxicity (steatosis) [13]: 1
Hepatotoxicity (benign tumour) [14]: 0
Hepatotoxicity (mechanism) [15]: Dose-dependant
Hepatotoxicity (malignant tumour) [16]: 0
Hepatotoxicity (association with vascular disease) [17]: 0

Nc1ccc(/N=N/c2ccccc2)c(N)n1 [PHENAZOPYRIDINE]
Hepatotoxicity (choleostasis) [1]: 2
Hepatotoxicity (acute) [2]: 0%
Hepatotoxicity (severe hepatitis) [3]: 0
Hepatotoxicity (cytolytic) [4]: 0
Hepatotoxicity (time to onset) [5]: 1 week
Hepatotoxicity (granulomatous hepatitis) [6]: 0
Hepatotoxicity (moderate) [7]: 4
Hepatotoxicity (acute) [8]: 2
Hepatotoxicity (moderate) [9]: 0%
Hepatotoxicity (cirrhosis) [10]: 0
Hepatotoxicity (animal toxicity known) [11]: yes
Hepatotoxicity (chronic liver disease) [12]: 0
Hepatotoxicity (steatosis) [13]: 0
Hepatotoxicity (benign tumour) [14]: 0
Hepatotoxicity (mechanism) [15]: Allergic, Toxic Metabolite
Hepatotoxicity (malignant tumour) [16]: 0
Hepatotoxicity (association with vascular disease) [17]: 0

CO[C@H](C(=O)[C@@H](O)[C@@H](C)O)[C@@H]1Cc2cc3cc(O[C@H]4C[C@@H](O[C@H]5C[C@@H](O)[C@H](O)[C@@H](C)O5)[C@H](O)[C@@H](C)O4)c(C)c(O)c3c(O)c2C(=O)[C@H]1O[C@H]1C[C@@H](O[C@H]2C[C@@H](O[C@H]3C[C@](C)(O)[C@H](O)[C@@H](C)O3)[C@@H](O)[C@@H](C)O2)[C@H](O)[C@@H](C)O1 [PLICAMYCIN]
Hepatotoxicity (choleostasis) [1]: 0
Hepatotoxicity (acute) [2]: 0%
Hepatotoxicity (severe hepatitis) [3]: 3
Hepatotoxicity (cytolytic) [4]: 6
Hepatotoxicity (time to onset) [5]: 4 days
Hepatotoxicity (granulomatous hepatitis) [6]: 0
Hepatotoxicity (moderate) [7]: 24
Hepatotoxicity (acute) [8]: 6
Hepatotoxicity (moderate) [9]: 100%
Hepatotoxicity (cirrhosis) [10]: 0
Hepatotoxicity (animal toxicity known) [11]: yes
Hepatotoxicity (chronic liver disease) [12]: 0
Hepatotoxicity (steatosis) [13]: 1
Hepatotoxicity (benign tumour) [14]: 0
Hepatotoxicity (mechanism) [15]: Dose-dependant
Hepatotoxicity (malignant tumour) [16]: 0
Hepatotoxicity (association with vascular disease) [17]: 0

COc1cc(NC(C)CCCN)c2ncccc2c1 (configuration not stated) [PRIMAQUINE]
Hepatotoxicity (choleostasis) [1]: 0
Hepatotoxicity (acute) [2]: 0%
Hepatotoxicity (severe hepatitis) [3]: 0
Hepatotoxicity (cytolytic) [4]: 1
Hepatotoxicity (time to onset) [5]: 2 days
Hepatotoxicity (granulomatous hepatitis) [6]: 0
Hepatotoxicity (moderate) [7]: 0
Hepatotoxicity (acute) [8]: 1
Hepatotoxicity (moderate) [9]: 0%
Hepatotoxicity (cirrhosis) [10]: 0
Hepatotoxicity (animal toxicity known) [11]: yes
Hepatotoxicity (chronic liver disease) [12]: 0
Hepatotoxicity (steatosis) [13]: 0
Hepatotoxicity (benign tumour) [14]: 0
Hepatotoxicity (mechanism) [15]: Overdose
Hepatotoxicity (malignant tumour) [16]: 0
Hepatotoxicity (association with vascular disease) [17]: 0

Cc1ccc(C(=O)c2cc(O)c(O)c([N+](=O)[O-])c2)cc1 [TOLCAPONE]
Hepatotoxicity (choleostasis) ([1]; Liver): 0
Hepatotoxicity (acute) ([2]; Liver): 0.7%
Hepatotoxicity (severe hepatitis) ([3]; Liver): 5
Hepatotoxicity (cytolytic) ([4]; Liver): 6
Hepatotoxicity (time to onset) [5]: 1 month - 6 months
Hepatotoxicity (granulomatous hepatitis) ([6]; Liver): 0
Hepatotoxicity (moderate) [7]: 6
Hepatotoxicity (acute) [8]: 6
Hepatotoxicity (moderate) ([9]; Liver): 14.3%
Hepatotoxicity (cirrhosis) [10]: 0
Hepatotoxicity (animal toxicity known) [11]: yes
Hepatotoxicity (chronic liver disease) [12]: 0
Hepatotoxicity (steatosis) [13]: 0
Hepatotoxicity (benign tumour) [14]: 0
Hepatotoxicity (mechanism) ([15]; Liver): Mitochondrial toxicity
Hepatotoxicity (malignant tumour) [16]: 0
Hepatotoxicity (association with vascular disease) [17]: 0

COc1ccc2c(C(=S)N(C)CC(=O)O)cccc2c1C(F)(F)F [TOLRESTAT]
Hepatotoxicity (choleostasis) [1]: 0
Hepatotoxicity (acute) [2]: 0.2%
Hepatotoxicity (severe hepatitis) [3]: 1
Hepatotoxicity (cytolytic) [4]: 2
Hepatotoxicity (time to onset) [5]: 7 weeks - 6 months
Hepatotoxicity (granulomatous hepatitis) [6]: 0
Hepatotoxicity (moderate) [7]: 7
Hepatotoxicity (acute) [8]: 2
Hepatotoxicity (moderate) [9]: 15.4%
Hepatotoxicity (cirrhosis) [10]: 0
Hepatotoxicity (animal toxicity known) [11]: yes
Hepatotoxicity (chronic liver disease) [12]: 0
Hepatotoxicity (steatosis) [13]: 0
Hepatotoxicity (benign tumour) [14]: 0
Hepatotoxicity (malignant tumour) [16]: 0
Hepatotoxicity (association with vascular disease) [17]: 0

OCC(Br)(Br)Br [TRIBROMOETHANOL]
Hepatotoxicity (choleostasis) [1]: 0
Hepatotoxicity (acute) [2]: 0.1%
Hepatotoxicity (severe hepatitis) [3]: 15
Hepatotoxicity (cytolytic) [4]: 8
Hepatotoxicity (time to onset) [5]: 1 day - 4 days
Hepatotoxicity (granulomatous hepatitis) [6]: 0
Hepatotoxicity (moderate) [7]: 1
Hepatotoxicity (acute) [8]: 9
Hepatotoxicity (moderate) [9]: 0%
Hepatotoxicity (cirrhosis) [10]: 0
Hepatotoxicity (animal toxicity known) [11]: yes
Hepatotoxicity (chronic liver disease) [12]: 0
Hepatotoxicity (steatosis) [13]: 9
Hepatotoxicity (benign tumour) [14]: 0
Hepatotoxicity (malignant tumour) [16]: 0
Hepatotoxicity (association with vascular disease) [17]: 0

C[C@H](CCC(=O)O)[C@H]1CC[C@H]2[C@@H]3[C@@H](O)C[C@@H]4C[C@H](O)CC[C@]4(C)[C@H]3CC[C@]12C [URSODIOL]
Hepatotoxicity (choleostasis) [1]: 0
Hepatotoxicity (acute) [2]: 0%
Hepatotoxicity (severe hepatitis) [3]: 0
Hepatotoxicity (cytolytic) [4]: 0
Hepatotoxicity (time to onset) [5]: 3 weeks - 14 weeks
Hepatotoxicity (granulomatous hepatitis) [6]: 0
Hepatotoxicity (moderate) [7]: 8
Hepatotoxicity (acute) [8]: 1
Hepatotoxicity (moderate) [9]: 4.2%
Hepatotoxicity (cirrhosis) [10]: 0
Hepatotoxicity (animal toxicity known) [11]: yes
Hepatotoxicity (chronic liver disease) [12]: 0
Hepatotoxicity (steatosis) [13]: 0
Hepatotoxicity (benign tumour) [14]: 0
Hepatotoxicity (malignant tumour) [16]: 0
Hepatotoxicity (association with vascular disease) [17]: 0

ASPARAGINASE
Hepatotoxicity (choleostasis) [1]: 0
Hepatotoxicity (acute) [2]: 2.9%
Hepatotoxicity (severe hepatitis) [3]: 2
Hepatotoxicity (cytolytic) [4]: 1
Hepatotoxicity (granulomatous hepatitis) [6]: 0
Hepatotoxicity (moderate) [7]: 27
Hepatotoxicity (acute) [8]: 2
Hepatotoxicity (moderate) [9]: 63%
Hepatotoxicity (cirrhosis) [10]: 0
Hepatotoxicity (animal toxicity known) [11]: yes
Hepatotoxicity (chronic liver disease) [12]: 0
Hepatotoxicity (steatosis) [13]: 9
Hepatotoxicity (benign tumour) [14]: 0
Hepatotoxicity (mechanism) [15]: Dose-dependant
Hepatotoxicity (malignant tumour) [16]: 0
Hepatotoxicity (association with vascular disease) [17]: 0
